Measurements reported in patent US9107926B2, “Mutant selectivity and combinations of a phosphoinositide 3-kinase inhibitor compound and chemotherapeutic agents for the treatment of cancer” (Genentech, Inc., priority 2012, dated 2015).

Columns and labels:
SW403 = experiment: CellTiter-Glo cell proliferation assay; assay type: cell-based; conditions: Homo sapiens, SW-403, Colon, KRAS/HET.546Q > K
H2009 = experiment: CellTiter-Glo cell proliferation assay; assay type: cell-based; conditions: Homo sapiens, NCI-H2009, Lung(NSCLC), K-RAS
H647 = experiment: CellTiter-Glo cell proliferation assay; assay type: cell-based; conditions: Homo sapiens, NCI-H647, Lung(NSCLC), K-RAS
H522 = experiment: CellTiter-Glo cell proliferation assay; assay type: cell-based; conditions: Homo sapiens, NCI-H522, Lung(NSCLC), WT
IGROV1 = experiment: CellTiter-Glo cell proliferation assay; assay type: cell-based; conditions: Homo sapiens, IGROV-1, Ovarian, Kinase-HET.1069O > W
Description: (§2) Cell Culture Medium: RPMI or DMEM high glucose, 10% Fetal Bovine Serum, 2 mM L-Glutamine, P/S. Incubate O/N (overnight) at 37° C., 5% CO2.
(§3) Drug Addition to Cells, Cell Plate (1:10 dilution): Add 6 μl of media+compound directly to cells (54 μl of media on the cells already). Incubate 3 days at 37° C., 5% CO2 in an incubator that will not be opened often.
(§4) Day 5—Develop Plates, Thaw Cell Titer Glo Buffer at room temperature: Remove Cell Plates from 37° C. and equilibrate to room temperature for about 30 minutes. Add Cell Titer-Glo® Buffer to Cell Titer-Glo® Substrate (bottle to bottle). Add 30 μl Cell Titer-Glo® Reagent (Promega cat.#G7572) to each well of cells. Place on plate shaker for about 30 minutes. Read luminescence on Analyst HT Plate Reader (half second per well).

H417 = experiment: CellTiter-Glo cell proliferation assay; assay type: cell-based; conditions: Homo sapiens, NCI-H417, Lung(SC), Helical-HET.546Q > K, HOM.391I > M
H596 = experiment: CellTiter-Glo cell proliferation assay; assay type: cell-based; conditions: Homo sapiens, NCI-H596, Lung(NSCLC), Helical-HET.545E > K, HET.997L > P
KNS-62 = experiment: CellTiter-Glo cell proliferation assay; assay type: cell-based; conditions: Homo sapiens, Lung(NSCLC), K-RAS
H441 = experiment: CellTiter-Glo cell proliferation assay; assay type: cell-based; conditions: Homo sapiens, NCI-H441, Lung(NSCLC), K-RAS
CAMA-1 = experiment: CellTiter-Glo cell proliferation assay; assay type: cell-based; conditions: Homo sapiens, Breast, PTEN*
[1] = tested on: SKOV3 ovarian tumor xenografts; experiment: In vivo mouse tumor xenograft efficacy; conditions: PO daily (QD), 21 day treatment period
H1048 = experiment: CellTiter-Glo cell proliferation assay; assay type: cell-based; conditions: Homo sapiens, NCI-H1048, Lung(SC), Kinase-HET.1047H > R, HET.391I > M
H23 = experiment: CellTiter-Glo cell proliferation assay; assay type: cell-based; conditions: Homo sapiens, NCI-H23, Lung(NSCLC), K-RAS
H82 = experiment: CellTiter-Glo cell proliferation assay; assay type: cell-based; conditions: Homo sapiens, NCI-H82, Lung(SC), PTEN
SKOV3 = experiment: CellTiter-Glo cell proliferation assay; assay type: cell-based; conditions: Homo sapiens, SK-OV-3, Ovarian, Kinase-HET.1047H > R, HET.350D > N
Description: as §2, §3, §4

HCC-202 = experiment: CellTiter-Glo cell proliferation assay; assay type: cell-based; conditions: HCC202, Breast, Helical-HET.545E > K, HET.866L > F, HET.391I > M
Cal 85-1 = experiment: CellTiter-Glo cell proliferation assay; assay type: cell-based; conditions: Homo sapiens, Breast, WT
HS 578T-1x2 = experiment: CellTiter-Glo cell proliferation assay; assay type: cell-based; conditions: Breast, WT
[2] = tested on: MCF-7 breast tumor xenografts; experiment: In vivo mouse tumor xenograft efficacy; set-up: species or system mice
Description: Fulvestrant was dosed subcutaneously with 5 mg of drug once a week (qw) for 3 weeks.
Paclitaxel was dosed intravenously every 4 days for 5 cycles with 7.5 mg/kg of drug.
(§1) Xenografts were initiated with cancer cells. […] Volume was calculated using the formula: […]

MCF7-neo/HER2 = experiment: CellTiter-Glo cell proliferation assay; assay type: cell-based; conditions: Breast, Helical-HET.545E > K
Description: as §2, §3, §4

ABC-1 = experiment: CellTiter-Glo cell proliferation assay; assay type: cell-based; conditions: Homo sapiens, Lung(NSCLC), WT
MDA-MB-436 = experiment: CellTiter-Glo cell proliferation assay; assay type: cell-based; conditions: Homo sapiens, Breast, PTEN
H1703 = experiment: CellTiter-Glo cell proliferation assay; assay type: cell-based; conditions: Homo sapiens, NCI-H1703, Lung(NSCLC), WT
LXFL-529 = experiment: CellTiter-Glo cell proliferation assay; assay type: cell-based; conditions: Homo sapiens, Lung(NSCLC), Helical-HET.542E > K
SW1783 = experiment: CellTiter-Glo cell proliferation assay; assay type: cell-based; conditions: Homo sapiens, Glioma, PTEN
[3] = tested on: HM-7 colorectal cancer tumor xenografts; experiment: In vivo mouse tumor xenograft efficacy; set-up: species or system mice
Description: as §1

[4] = tested on: 22RV1 prostate cancer tumor xenografts; experiment: In vivo mouse tumor xenograft efficacy; set-up: species or system mice; conditions: PO daily (QD), 24 days
Description: as §1

[5] = tested on: 537 MEL melanoma cancer tumor xenografts; experiment: In vivo mouse tumor xenograft efficacy; set-up: species or system mice; conditions: PO daily (QD), 21 days
Description: as §1

[6] = tested on: NCI-H1975 non-small cell lung cancer (NSCLC) tumor xenografts; experiment: In vivo mouse tumor xenograft efficacy; set-up: species or system mice; conditions: PO daily (QD), 24 day treatment period; versus vehicle
Description: as §1

[7] = tested on: KPL4 breast tumor xenografts; experiment: In vivo mouse tumor xenograft efficacy; set-up: species or system mice
Description: as §1

[8] = tested on: PC3 prostate cancer tumor xenografts; experiment: In vivo mouse tumor xenograft efficacy; set-up: species or system mice
Description: as §1

[9] = tested on: MCF-7 neo/HER2 breast cancer tumor xenografts; experiment: In vivo mouse tumor xenograft efficacy; set-up: species or system mice; conditions: for % TGI@ day 21: QD
Description: as §1

PC3 = experiment: CellTiter-Glo cell proliferation assay; assay type: cell-based; conditions: Homo sapiens, PC-3, Prostate, PTEN
KP4x1 = experiment: CellTiter-Glo cell proliferation assay; assay type: cell-based; conditions: Pancreatic, K-RAS
DLD-1 = experiment: CellTiter-Glo cell proliferation assay; assay type: cell-based; conditions: Homo sapiens, Colon, KRAS/HET.545E > K

Cc1nc(-c2cn3c(n2)-c2ccc(-c4cnn(C(C)(C)C(N)=O)c4)cc2OCC3)n(C(C)C)n1 [GDC-0032, 2-(4-(2-(1-isopropyl-3-methyl-1H-1,2,4-triazol-5-yl)-5,6-dihydrobenzo[f]imidazo[1,2-d][1,4]oxazepin-9-yl)-1H-pyrazol-1-yl)-2-methylpropanamide]
EC50 (SW403): 0.143 µM | EC50 (H2009): 0.71 µM | EC50 (H647): 9.02 µM | EC50 (H522): 10 µM | EC50 (IGROV1): 0.031 µM | EC50 (H417): 1.28 µM | EC50 (H596): 0.058 µM | EC50 (KNS-62): 3.56 µM | EC50 (H441): 10 µM | EC50 (CAMA-1): 5.62 µM | tumor volume change [1]: dose-dependent decrease in tumor volume | EC50 (H1048): 0.014 µM | EC50 (H23): 2.74 µM | EC50 (H82): 10 µM | EC50 (SKOV3): 0.076 µM | EC50 (HCC-202): 0.018 µM | EC50 (Cal 85-1): 0.52 µM | EC50 (HS 578T-1x2): 2.07 µM | tumor volume change ([2]; PO daily (QD), 21 days, nude mice): dose-dependent decrease in tumor volume | tumor response ([2]; all doses of GDC-0032 tested, versus vehicle): Increased tumor regressions | EC50 (MCF7-neo/HER2): 0.178 µM | EC50 (ABC-1): 0.234 µM | EC50 (MDA-MB-436): 4.69 µM | EC50 (H1703): 0.136 µM | EC50 (LXFL-529): 0.057 µM | EC50 (SW1783): 3.11 µM | tumor response ([3]; 25 mg/kg, end of treatment on day 7, versus vehicle): increased tumor regressions | tumor volume change ([3]; PO daily (QD), 7 days): dose dependent decrease in tumor volume | tumor volume change [4]: dose-dependent decrease in tumor volume | tumor volume change [5]: dose-dependent decrease in tumor volume | tumor volume change [6]: dose-dependent decrease in tumor volume | tumor response ([7]; 25 mg/kg, end of treatment on day 21, versus vehicle): increased tumor regressions | tumor volume change ([7]; PO daily (QD), 21 days, SCID beige mice): dose dependent decrease in tumor volume | anti-tumor efficacy ([8]; doses <12.5 mg/kg, daily dosing for 14 days): not efficacious | anti-tumor response ([8]; highest dose tested (25 mg/kg), daily, 14 days): tumor stasis | tumor response ([9]; 22.5 mg/kg, after 10 days of treatment, versus vehicle): increased tumor regressions | tumor volume change ([9]; PO daily (QD), 20 days, nude mice): dose dependent decrease in tumor volume | % TGI@ day 21 ([9]; 5.0 mg/kg): 57% | % TGI@ day 21 ([9]; 10 mg/kg): 83% | % TGI@ day 21 ([9]; 20 mg/kg): 83% | EC50 (PC3): 0.864 µM | EC50 (KP4x1): 2.94 µM | EC50 (DLD-1): 2.5 µM
